Measured values: patent US8367328B2, “Method for synthesizing DNA” (Takara Bio Inc., priority 1998, dated 2013)

Target: T1, Pfu DNA Polymerase II (Pyrococcus furiosus, UniProt P81409+P81412)
T1 construct: made in house; host or cells: Escherichia coli JM109/pFU1001 (FERM BP-5579)
T1 sequence (P81409 1-1263): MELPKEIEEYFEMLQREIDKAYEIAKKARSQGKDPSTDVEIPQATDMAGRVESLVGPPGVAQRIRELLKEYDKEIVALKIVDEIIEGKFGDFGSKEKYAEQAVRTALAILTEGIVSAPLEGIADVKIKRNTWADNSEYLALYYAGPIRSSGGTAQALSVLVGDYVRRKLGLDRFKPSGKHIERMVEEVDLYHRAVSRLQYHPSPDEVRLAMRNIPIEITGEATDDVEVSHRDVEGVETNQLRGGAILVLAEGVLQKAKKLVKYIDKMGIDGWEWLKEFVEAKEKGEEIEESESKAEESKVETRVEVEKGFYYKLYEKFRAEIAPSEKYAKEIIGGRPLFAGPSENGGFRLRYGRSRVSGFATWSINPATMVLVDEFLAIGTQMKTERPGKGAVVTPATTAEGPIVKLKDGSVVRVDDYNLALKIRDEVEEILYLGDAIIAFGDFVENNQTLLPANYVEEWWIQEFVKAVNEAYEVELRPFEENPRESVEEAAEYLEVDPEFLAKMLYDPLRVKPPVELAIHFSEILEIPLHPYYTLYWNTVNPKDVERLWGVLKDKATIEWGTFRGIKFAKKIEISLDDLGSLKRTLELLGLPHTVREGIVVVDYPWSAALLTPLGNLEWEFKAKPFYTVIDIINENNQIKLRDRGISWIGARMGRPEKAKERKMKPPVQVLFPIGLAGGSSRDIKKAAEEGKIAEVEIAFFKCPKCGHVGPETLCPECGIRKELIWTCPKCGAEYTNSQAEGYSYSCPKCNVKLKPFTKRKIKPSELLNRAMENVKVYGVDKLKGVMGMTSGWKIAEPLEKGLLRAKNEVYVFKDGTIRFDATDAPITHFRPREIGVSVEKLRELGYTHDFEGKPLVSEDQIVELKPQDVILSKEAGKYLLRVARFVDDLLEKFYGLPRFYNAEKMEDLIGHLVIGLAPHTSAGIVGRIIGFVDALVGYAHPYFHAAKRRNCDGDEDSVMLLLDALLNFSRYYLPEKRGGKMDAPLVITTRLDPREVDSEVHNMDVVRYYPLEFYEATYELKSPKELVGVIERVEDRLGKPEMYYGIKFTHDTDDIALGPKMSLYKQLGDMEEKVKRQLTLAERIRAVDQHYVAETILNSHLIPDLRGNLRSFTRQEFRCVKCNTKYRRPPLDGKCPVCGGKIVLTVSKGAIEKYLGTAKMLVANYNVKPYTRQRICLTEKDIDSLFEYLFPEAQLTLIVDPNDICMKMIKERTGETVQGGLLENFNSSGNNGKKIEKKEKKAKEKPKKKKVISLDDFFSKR
T1 sequence (P81412 1-613): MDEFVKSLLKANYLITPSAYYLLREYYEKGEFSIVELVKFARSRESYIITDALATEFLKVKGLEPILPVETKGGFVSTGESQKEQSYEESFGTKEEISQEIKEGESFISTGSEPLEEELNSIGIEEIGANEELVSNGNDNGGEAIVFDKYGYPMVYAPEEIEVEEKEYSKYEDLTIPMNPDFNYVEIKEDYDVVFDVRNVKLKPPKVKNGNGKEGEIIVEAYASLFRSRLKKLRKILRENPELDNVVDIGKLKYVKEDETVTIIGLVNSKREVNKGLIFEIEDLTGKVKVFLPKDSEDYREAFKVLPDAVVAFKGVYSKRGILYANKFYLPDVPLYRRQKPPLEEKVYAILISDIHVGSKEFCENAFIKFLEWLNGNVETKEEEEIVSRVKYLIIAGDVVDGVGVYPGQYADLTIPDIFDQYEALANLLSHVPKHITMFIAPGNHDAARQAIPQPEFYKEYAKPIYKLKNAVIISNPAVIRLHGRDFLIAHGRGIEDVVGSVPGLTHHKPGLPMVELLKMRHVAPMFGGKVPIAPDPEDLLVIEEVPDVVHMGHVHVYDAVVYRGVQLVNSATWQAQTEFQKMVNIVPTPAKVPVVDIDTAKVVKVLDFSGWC
Experiment: PCR with Pfu DNA Polymerase II in the presence of acidic substances (λDNA template)
Format: biochemical
Details: 0.5 kb fragment; 100 pg λDNA, primers λ1/λ2, 25 cycles 98°C 5 s–66°C 15 s; amount added 1 μg
Method: A reaction mixture comprising λDNA as a template, primers λ1 and λ3 as a primer pair, and Pfu DNA Polymerase II as DNA polymerase was prepared, and PCR was carried out. The composition of the reaction mixture is as follows.
10 mM Tris-hydrochloric acid (pH 9.2), 75 mM potassium chloride, 6 mM magnesium chloride, 0.4 mM each of dATP, dCTP, dGTP and dTTP, 0.01% BSA, 1.25 U of Pfu DNA Polymerase II, 500 pg of λDNA, and 5 pmol each of primers λ1 and λ3 (a final volume being 25 μl). […]
Using the sulfated-fucose-containing Polysaccharide-F obtained in Example 6 described above, dextran sulfate powder (manufactured by Onco), or sodium alginate (100 to 150 centipoises, manufactured by Wako Pure Chemicals), the effects of these acidic substances on the activity of Pfu DNA Polymerase II were examined. A reaction mixture comprising λDNA as a template, primers λ1 and λ2 as a primer pair, and Pfu DNA Polymerase II as DNA polymerase was prepared, and PCR was carried out. The composition of the reaction mixture is as follows.
(§1) 10 mM Tris-hydrochloric acid, pH 9.2, 75 mM potassium chloride, 6 mM magnesium chloride, 0.4 mM each of dATP, dCTP, dGTP and dTTP, 0.01% BSA, 1.25 U of Pfu DNA Polymerase II, 100 pg of λDNA, and 5 pmol each of primers λ1 and λ2 (a final volume being 25 μl). Further, 10 ng of the sulfated-fucose-containing polysaccharide-F, 10 ng of dextran sulfate powder, or 1 μg of sodium alginate was respectively added to the above reaction mixture.
(§2) The reaction in 25 cycles was carried out for each of these reaction mixtures, wherein one cycle of reaction comprises a process consisting of 98° C., 5 seconds—66° C., 15 seconds. Thereafter, 5 μl of the resulting reaction mixture was subjected to electrophoresis on 1% agarose gel containing ethidium bromide in an amount of 0.00005%, whereby an amplified fragment was confirmed.
Further, studies were conducted on the effects of the sulfated-fucose-containing polysaccharide-F obtained in Example 6 described above, the sulfated-fucose-containing polysaccharide-U obtained in Example 7 described above, or sodium polyglutamate (manufactured by Sigma) as an acidic substance. A reaction mixture for PCR was prepared in the same manner as described above except for changing the amount of template λDNA to 500 pg and the primer pairs to primers λ1 and λ3. Five nanograms of the sulfated-fucose-containing polysaccharide-F, 5 ng, 10 ng, 20 ng or 30 ng each of the sulfated-fucose-containing polysaccharide-U, or 250 ng, 500 ng, 750 ng or 1000 ng each of sodium polyglutamate was respectively added to the above reaction mixture.
as §2, with “reaction” for “reaction in 25 cycles”, “in 30 cycles,” for “for each of these reaction mixtures,”, “After the termination of the reaction,” for “Thereafter,”
Using the sulfated-fucose-containing polysaccharide-F obtained in Example 6 described above, the effects on the activity of Pfu DNA Polymerase II were examined. A reaction mixture comprising λDNA as a template, primers λ1 and λ2 as a primer pair, and Pfu DNA Polymerase II as DNA polymerase was prepared, and PCR was carried out. The composition of the reaction mixture is as follows.
as §1, with “500” for “100”, “polysaccharide-F” for “polysaccharide-F, 10 ng of dextran sulfate powder, or 1 μg of sodium alginate”
The reaction in 30 cycles was carried out for each of these reaction mixtures, wherein one cycle of reaction comprises a process consisting of 98° C., 5 seconds—66° C., 15 seconds. […]

sodium alginate
Amplification Results: + (Amplification being observed)
